The values below come from patent publication US20210094954A1, “PREPARATION METHODS AND APPLICATIONS OF 3,5-DISUBSTITUTED METHYLPYRAZOLO[1,5-A]PYRIMIDINE-7-HYDROXYLIC SALTS” (priority 2019, published 2021).

One test deals with Diphtheria bacilli. The test can be described thus: organism not typed. The format is cell-based. As to conditions: 37° C., 24 hours; read-out: MIC values of in vitro antibacterial test results.
The test system of test [1] is Streptococcus pneumoniae M2. The test can be described thus: microbe, parasite or virus in culture. In kind it is cell-based. To be noted: Streptococcus pneumoniae, M2; 37° C., 24 hours; read-out: MIC values of in vitro antibacterial test results.
Test [2] deals with Bacillus anthracis Bacillus 1. Put plainly: microbe, parasite or virus in culture. To be noted: Bacillus anthracis, 24 h, read-out: MIC values of in vitro antibacterial test results. In kind it is cell-based.
In test [3] the test system is Streptococcus pneumoniae 6303 (PRSP). Put plainly: microbe, parasite or virus in culture. In kind it is cell-based. As to conditions: Streptococcus pneumoniae, PRSP, 24 h, read-out: MIC values of in vitro antibacterial test results.
For test [4], the system named is F2518(VRE), Staphylococcus aureus resistant strain 43300(MRSA), 703 (MRSA), pneumococcal resistance bacteria 6303(PRSP). The test can be described thus: microbe, parasite or virus in culture. In kind it is cell-based. To be noted: read-out: MIC values (μM).
Test [5] concerns Enterococcus faecalis F2518(VRE). Put plainly: microbe, parasite or virus in culture. In kind it is cell-based. As to conditions: Enterococcus faecalis, VRE, 24 h, read-out: MIC values of in vitro antibacterial test results.
For test [6], the system named is Staphylococcus aureus 29231. The test can be described thus: microbe, parasite or virus in culture. The format is cell-based. To be noted: Staphylococcus aureus, 29231; 37° C., 24 hours; read-out: MIC values of in vitro antibacterial test results.
The test system of test [7] is Staphylococcus aureus 43300(MRSA). Put plainly: microbe, parasite or virus in culture. In kind it is cell-based. To be noted: Staphylococcus aureus, MRSA.
The next test concerns Oral Candida. Put plainly: microbe, parasite or virus in culture. In kind it is cell-based. As to conditions: Candida.
A further test concerns Bacillus subtilis 168. The test can be described thus: microbe, parasite or virus in culture. The format is cell-based. As to conditions: Bacillus subtilis, 168; 37° C., 24 hours; read-out: MIC values of in vitro antibacterial test results.
For a further test, the system named is Bacillus cereus 2. The test can be described thus: microbe, parasite or virus in culture. In kind it is cell-based. To be noted: Bacillus cereus, 2; 37° C., 24 hours; read-out: MIC values of in vitro antibacterial test results.
Test [8] concerns Streptococcus pneumoniae 10351. Put plainly: microbe, parasite or virus in culture. The format is cell-based. As to conditions: Streptococcus pneumoniae, 10351; 37° C., 24 hours; read-out: MIC values of in vitro antibacterial test results.
In the next test the test system is Clostridium perfringens. The test can be described thus: microbe, parasite or virus in culture. To be noted: Clostridium perfringens, 24 h, read-out: MIC values of in vitro antibacterial test results. In kind it is cell-based.
Test [9] concerns Streptococcus agalactia B group. Put plainly: microbe, parasite or virus in culture. In kind it is cell-based. To be noted: Streptococcus; 37° C., 24 hours; read-out: MIC values of in vitro antibacterial test results.
For test [10], the system named is Staphylococcus aureus 703(MRSA). Put plainly: microbe, parasite or virus in culture. To be noted: Staphylococcus aureus, MRSA. The format is cell-based.
Test [11] relates to Enterococcus faecalis 29212. Put plainly: microbe, parasite or virus in culture. To be noted: Enterococcus faecalis, 29212; 37° C., 24 hours; read-out: MIC values of in vitro antibacterial test results. The format is cell-based.
The next test deals with Peel fungus. Put plainly: organism not typed. The format is cell-based. To be noted: 37° C., 24 hours; read-out: MIC values of in vitro antibacterial test results.
In test [12] the test system is Staphylococcus aureus 43300 (MRSA). Put plainly: antibacterial study in vivo, survival of infected kunming mice. To be noted: for Survival days: 30 days of observation.
[13] abbreviates: 24 h, read-out: MIC values of in vitro antibacterial test results.
Where [14] appears, read: 37° C., 24 hours, read-out: MIC values of in vitro antibacterial test results.

Where two headings read alike, the source gives them in different places.

As for `Cc1nn2c([O-])cc(-c3ccc(S(N)(=O)=O)cc3)nc2c1-c1ccc(F)cc1F.[K+]` [Compound 25, Potassium 3-(2,4-difluorophenyl)-2-methyl-5-(4-sulfamoylphenyl)pyrazolo[1,5-α]pyrimidin-7-olate], the MIC in the test with Diphtheria bacilli is above 150 µg/mL; in test [1], below 100 µg/mL; in [2] it was above 150 µg/mL; in test [3] it was above 150 µg/mL; in [4] it was below 100 µg/mL; in test [5], below 150 µg/mL. Further, the MIC in [6] is above 150 µg/mL; in [7] (setting [13]) it was below 150 µg/mL; in the test with Oral Candida (read-out: MIC values (μM)), below 100 µg/mL; in the test with Oral Candida (setting [14]) it was below 100 µg/mL; in the test with Bacillus subtilis 168, above 150 µg/mL; with Bacillus cereus 2 it was below 150 µg/mL. Further, the MIC in test [8] is above 150 µg/mL; in the test with Clostridium perfringens it was above 150 µg/mL; in [9], above 150 µg/mL; in test [10] (setting [13]), below 150 µg/mL; in test [11], below 150 µg/mL; with Peel fungus, below 150 µg/mL.
Regarding `Cc1nn2c([O-])cc(-c3ccc(C#N)cc3)nc2c1-c1ccc(F)cc1F.[Na+]` [Compound 2, Sodium 5-(4-cyanophenyl)-3-(2,4-difluorophenyl)-2-methylpyrazolo[1,5-α]pyrimidin-7-olate], the MIC with Diphtheria bacilli was above 150 µg/mL; in test [1], below 150 µg/mL; in test [2] it was above 150 µg/mL; in [3], below 150 µg/mL; in test [4], below 100 µg/mL; in [5], below 150 µg/mL. Moreover, the MIC in test [6] was below 100 µg/mL; in test [7] (setting [13]), below 50 µg/mL; in [7] (read-out: MIC values (μM)), below 50 µg/mL; in the test on Oral Candida (setting [14]), below 150 µg/mL; in the test on Bacillus subtilis 168, below 150 µg/mL; in the test on Bacillus cereus 2, below 100 µg/mL. Moreover, the MIC in test [8] is below 100 µg/mL; with Clostridium perfringens, above 150 µg/mL; in [9], below 150 µg/mL; in test [10] (setting [13]), below 50 µg/mL; in test [10] (read-out: MIC values (μM)), below 50 µg/mL; in [11] it was below 100 µg/mL. In the test with Peel fungus, the MIC was below 150 µg/mL.
Regarding `Cc1nn2c([O-])cc(-c3ccc(C#N)cc3)nc2c1-c1ccc(F)cc1F.[K+]` [Compound 20, Potassium 5-(4-cyanophenyl)-3-(2,4-difluorophenyl)-2-methylpyrazolo[1,5-α]pyrimidin-7-olate], the MIC is below 150 µg/mL in the test on Diphtheria bacilli; below 100 µg/mL in test [1]; above 150 µg/mL in [2]; below 150 µg/mL in [3]; below 100 µg/mL in [4]; below 150 µg/mL in test [5]. The MIC is below 100 µg/mL in test [6]; below 150 µg/mL in test [7] (setting [13]); below 150 µg/mL with Oral Candida (setting [14]); below 100 µg/mL in the test on Bacillus subtilis 168; below 100 µg/mL in the test with Bacillus cereus 2; below 100 µg/mL in test [8]. Besides, the MIC in the test on Clostridium perfringens is below 150 µg/mL; in test [9], above 150 µg/mL; in test [10] (setting [13]), below 100 µg/mL; in [11] it was below 100 µg/mL; with Peel fungus, above 150 µg/mL.
Turning to `Cc1nn2c([O-])cc(-c3ccc(C(=O)[O-])nc3)nc2c1-c1ccc(F)cc1F.[Na+].[Na+]` [Compound 21, Disodium 5-(3-(2,4-difluorophenyl)-2-methyl-7-hydroxypyrazolo[1,5-α]pyrimidin-5-yl)picolinate], the MIC in the test on Diphtheria bacilli is above 150 µg/mL; in test [1], below 100 µg/mL; in test [2], above 150 µg/mL; in [3], above 150 µg/mL; in test [4] it was below 100 µg/mL; in test [5], below 150 µg/mL. The MIC in [6] is above 150 µg/mL; in [7] (setting [13]) it was below 100 µg/mL; with Oral Candida (read-out: MIC values (μM)), below 100 µg/mL; with Oral Candida (setting [14]) it was below 100 µg/mL; in the test on Bacillus subtilis 168 it was above 150 µg/mL; with Bacillus cereus 2, below 150 µg/mL. Besides, the MIC was above 150 µg/mL in test [8]; above 150 µg/mL in the test on Clostridium perfringens; above 150 µg/mL in test [9]; below 150 µg/mL in [10] (setting [13]); below 150 µg/mL in test [11]; below 150 µg/mL in the test on Peel fungus.
Regarding `Cc1nn2c([O-])cc(-c3ccc(N(C)C)cc3)nc2c1-c1ccc(F)cc1F.[Na+]` [Compound 5, Sodium 3-(2,4-difluorophenyl)-5-(4-(dimethylamino)phenyl)-2-methylpyrazolo[1,5-α]pyrimidin-7-olate], the MIC with Diphtheria bacilli is above 150 µg/mL; in test [1] it was below 100 µg/mL; in [2], above 150 µg/mL; in test [3] it was above 150 µg/mL; in [5], below 150 µg/mL; in [6] it was above 150 µg/mL. The MIC in [7] (setting [13]) was below 150 µg/mL; in the test with Oral Candida (read-out: MIC values (μM)), below 100 µg/mL; with Oral Candida (setting [14]), below 100 µg/mL; with Bacillus subtilis 168, above 150 µg/mL; with Bacillus cereus 2, below 150 µg/mL; in test [8], above 150 µg/mL. Moreover, the MIC was above 150 µg/mL in the test with Clostridium perfringens; above 150 µg/mL in [9]; below 150 µg/mL in [10] (setting [13]); below 150 µg/mL in [11]; below 150 µg/mL in the test with Peel fungus. Further, the “Survival days” value in test [12] (dosage 30 mg/kg) is 2.6 days.
For `Cc1nn2c([O-])cc(-c3ccc([O-])cc3)nc2c1-c1ccc(F)cc1F.[Na+].[Na+]` [Compound 6], the MIC with Diphtheria bacilli was above 150 µg/mL; in [1], below 150 µg/mL; in [2], above 150 µg/mL; in test [3] it was below 150 µg/mL; in test [4], below 100 µg/mL; in test [5] it was below 150 µg/mL. Besides, the MIC (in test [6]; in test [7] (setting [13]); with Oral Candida (read-out: MIC values (μM)); in the test on Oral Candida (setting [14]); in the test on Bacillus subtilis 168; in the test on Bacillus cereus 2) was below 100 µg/mL throughout. Further, the MIC in test [8] is below 100 µg/mL; in the test on Clostridium perfringens, above 150 µg/mL; in [9], below 150 µg/mL; in test [10] (setting [13]), below 100 µg/mL; in test [11], below 100 µg/mL; in the test on Peel fungus, below 150 µg/mL.
On to `Cc1nn2c([O-])cc(-c3ccc(C#N)nc3)nc2c1-c1ccc(F)cc1F.[Na+]` [Compound 15, sodium 5-(6-cyanopyridin-3-yl)-3-(2,4-difluorophenyl)-2-methylpyrazolo[1,5-α]pyrimidin-7-olate], for which the MIC in the test with Diphtheria bacilli is above 150 µg/mL; in test [1], below 100 µg/mL; in test [2], above 150 µg/mL; in test [3] it was below 150 µg/mL; in [4], below 100 µg/mL; in test [5], below 150 µg/mL. The MIC in test [6] was below 100 µg/mL; in test [7] (setting [13]), below 150 µg/mL; in the test with Oral Candida (setting [14]), below 150 µg/mL; with Bacillus subtilis 168 it was below 150 µg/mL; with Bacillus cereus 2, below 100 µg/mL; in [8] it was below 100 µg/mL. For the same molecule, the MIC in the test on Clostridium perfringens is above 150 µg/mL; in test [9], above 150 µg/mL; in test [10] (setting [13]) it was below 100 µg/mL; in [11] it was below 100 µg/mL; in the test on Peel fungus, above 150 µg/mL.
Consider `O=C(O)c1cn(C2CC2)c2cc(N3CCNCC3)c(F)cc2c1=O` [Ciprofloxacin, reference compound], for which, in [12] (dosage 20 mg/kg), the “Survival days” value came out at 3.4 days. In addition, the “Life extension rate (%)” value in test [12] (dosage 20 mg/kg, versus blank group) came out at 161.5%.
